Like-named read-outs stand apart in the source and are kept apart here.
Tests used:
HCT116 cells = experiment: Mitotic arrest assay on HCT116 cells (phospho-histone H3 Ser10); type: cell-based, human; conditions: lowest active dose; for minimal effective concentration: Homo sapiens, HCT-116, HCT116 cells, read-out: Mitotic arrest HCT116 LAD (converted); for Mitotic arrest HCT116 LAD: HCT116 cells, the values are: pLAD (−log M lowest active dose)
Outline: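 Read-out is imaging of phospho-histone H3 Ser10 (Alexa Fluor 488) with Hoechst nuclear counting, after 6 h compound exposure at 37 °C, DMSO ≤0.1%. LAD is the lowest dose at which the blank-corrected value over SD exceeds 5; triplicates, low-count wells excluded.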

PC3 cells = experiment: EB1 Comet (microtubule disruption) assay; type: cell-based, human; conditions: for minimal effective concentration: Homo sapiens, read-out: EB1 pLAC (converted)
Outline: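 Readout is loss of Eb1 plus-end foci, scored by immunofluorescence microscopy, in PC3 cells after 1 h compound treatment at 37 °C with 0.6% final DMSO. LAC is defined as the lowest concentration leaving at least 50% of cells without Eb1 foci.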

Row | SMILES | minimal effective concentration (HCT116 cells) [µM] | minimal effective concentration (PC3 cells; PC-3, 1 h, 1 hour treatment) [µM] | other results
1 | CCc1cc2ccc(C(C)(C#N)Cc3cccc(N4CCN(C)CC4)c3)cc2[nH]c1=O (stereo not shown) [Compound 66] | 3.16 |  | 
2 | CCOP(=O)(OCC)c1cccc(CC(C)(C#N)c2ccc3cc(CC)c(=O)[nH]c3c2)c1 (stereo not shown) [Compound 50] | 0.316 |  | minimal effective concentration (PC3 cells; PC-3, 1 hour treatment): 0.316 µM
3 | CCc1cc2ccc(C(C)(C#N)Cc3cc(Cl)ccc3OC)cc2[nH]c1=O (stereo not shown) [Compound 80] | 0.1 | 0.1 | 
4 | CCc1cc2ccc(C(C)(C#N)Cc3ccc(F)c(C)c3)cc2[nH]c1=O (stereo not shown) [Compound 79] | 0.316 | 1 | 
5 | CCc1cc2ccc(C(C)(C#N)Cc3ccncc3)cc2[nH]c1=O (stereo not shown) [Compound 98] | > 10 |  | 
6 | CCc1cc2ccc(C(C)(C#N)Cc3cc(Cl)cc4c3OCOC4)cc2[nH]c1=O (stereo not shown) [Compound 92] |  |  | Mitotic arrest HCT116 LAD (HCT116 cells): 6.5; EB1 pLAC (PC3 cells; 1 hour treatment): 6
7 | Cc1cc2ccc(C(C)(C#N)Cc3nc4ccccc4s3)cc2[nH]c1=O (stereo not shown) [Compound 75] | 0.1 | 0.316 | 
8 | CCc1cc2ccc(C(C)(C#N)Cc3ccc(OC)c(C#N)c3)cc2[nH]c1=O (stereo not shown) [Compound 77] | 0.316 | 1 | 
9 | Cc1cc2ccc(C(C)(C#N)Cc3cc4ccccc4[nH]3)cc2[nH]c1=O (stereo not shown) [Compound 234] | 3 | > 10 | 
10 | CCc1cc2ccc(C(C)(C#N)CCOc3cc(Cl)c(Cl)cc3Cl)cc2[nH]c1=O (stereo not shown) [Compound 277] | 0.3 |  | 
11 | CCc1cc2ccc(C(C)(C#N)Cc3cccc(CNC)c3)cc2[nH]c1=O (stereo not shown) [Compound 59] | 10 | 10 | 
12 | CCc1cc2ccc(C(C)(C#N)Cc3ccccc3)cc2[nH]c1=O (stereo not shown) [Compound 44] | 0.316 |  | 
13 | CCc1cc2ccc(C(C)(C#N)Cc3cc(Cl)cc4c3OCOC4)cc2[nH]c1=O (stereo not shown) [Compound 90] | 0.316 | 1 | 
14 | CCc1cc2ccc(C(C)(C#N)Cc3ccccc3C#N)cc2[nH]c1=O (stereo not shown) [Compound 101] | 0.316 | 1 | 
15 | Cc1cc2ccc(C(C)(C#N)Cc3ccccc3)cc2[nH]c1=O (stereo not shown) [Compound 76] | 0.316 | 1 | 
16 | CCc1cc2ccc(C(C)(C#N)Cc3cccc(C(=O)NCCOC)c3)cc2[nH]c1=O (stereo not shown) [Compound 62] | 1 |  | 
17 | CCc1cc2ccc(C(C)(C#N)Cc3c(F)ccc(C)c3F)cc2[nH]c1=O (stereo not shown) [Compound 41] | 0.316 | 0.316 | 
18 | CCc1cc2ccc(C(C)(C#N)Cc3c(C)cccc3C)cc2[nH]c1=O (stereo not shown) [Compound 84] | 0.316 | 1 | 
19 | CCc1cc2ccc(C(C)(C#N)Cc3cccc(C#C[Si](C)(C)C)c3)cc2[nH]c1=O (stereo not shown) [Compound 1] | 1 | 1 | 
20 | CCc1cc2ccc(C(C)(C#N)Cc3cc(OC)cc(OC)c3)cc2[nH]c1=O (stereo not shown) [Compound 332] | 0.1 | 0.316 | 
21 | CCc1cc2ccc([C@@](C)(C#N)Cc3ccccc3)cc2[nH]c1=O (single isomer, unassigned) [Compound 46] | 0.316 | 0.1 | 

Row | SMILES | minimal effective concentration (HCT116 cells) [µM] | minimal effective concentration (PC3 cells; PC-3, 1 h, 1 hour treatment) [µM] | other results
22 | CCc1cc2ccc(C(C)(C#N)Cc3ccccc3OC(F)(F)F)cc2[nH]c1=O (stereo not shown) [Compound 102] | 0.316 | 3.16 | 
23 | CCc1cc2ccc(C(C)(C#N)Cc3cccc(COC)c3)cc2[nH]c1=O (stereo not shown) [Compound 8] | 0.1 | 0.316 | 
24 | CCc1cc2ccc(C(C#N)(Cc3ccccc3)CC3CC3)cc2[nH]c1=O (stereo not shown) [Compound 28] | 3.16 |  | 
25 | CCc1cc2ccc(C(C)(C#N)Cc3cccc(N4CCNCC4)c3)cc2[nH]c1=O (stereo not shown) [Compound 64] | 3.16 |  | 
26 | CCc1cc2ccc(C(C)(C#N)Cc3cccc(N4CCCCC4)c3)cc2[nH]c1=O (stereo not shown) [Compound 65] | 1 |  | 
27 | CCc1cc2ccc(C(C)(C#N)Cc3cc4c(cc3Cl)OCO4)cc2[nH]c1=O (stereo not shown) [Compound 91] | 0.1 | 0.1 | 
28 | CCc1cc2ccc(C(C)(C#N)Cc3ccc(F)c(C#N)c3)cc2[nH]c1=O (stereo not shown) [Compound 267] | 0.1 | 0.1 | 
29 | CCc1cc2ccc(C(C)(C#N)Cc3cc(Cl)ccc3Cl)cc2[nH]c1=O (stereo not shown) [Compound 99] | 0.1 | 0.1 | 
30 | CCc1cc2ccc([C@](C)(C#N)Cc3nc(OC)cc(OC)n3)cc2[nH]c1=O (single isomer, unassigned) [Compound 52] | 3 | 3.16 | 
31 | CCc1cc2ccc(C(C)(C#N)Cc3cccc(CN4CCN(C)CC4)c3)cc2[nH]c1=O (stereo not shown) [Compound 57] | > 10 |  | 
32 | CCc1cc2ccc(C(C)(C#N)CCOc3ccccc3C#N)cc2[nH]c1=O (stereo not shown) [Compound 276] | 1 |  | 
33 | CCc1cc2ccc(C(C)(C#N)Cc3ccc(Cl)c(C(F)(F)F)c3)cc2[nH]c1=O (stereo not shown) [Compound 82] | 0.1 | 1 | 
34 | Cc1cc2ccc(C(C)(C#N)Cc3cc4ccccc4s3)cc2[nH]c1=O (stereo not shown) [Compound 71] | 0.316 | 1 | 
35 | CCc1cc2ccc(C(C)(C#N)Cc3cccc(CNCCN4CCOCC4)c3)cc2[nH]c1=O (stereo not shown) [Compound 61] | 10 |  | 
36 | CCc1cc2ccc(C(C)(C#N)Cc3cccc4nnn(C)c34)cc2[nH]c1=O (stereo not shown) [Compound 94] | 3.16 |  | 
37 | CCc1cc2ccc(C(C)(C#N)Cc3cccc(Br)c3)cc2[nH]c1=O (stereo not shown) [Compound 49] | 0.1 | 0.316 | 
38 | CCc1cc2ccc(C(C)(C#N)CCOc3ccccc3F)cc2[nH]c1=O (stereo not shown) [Compound 278] | 1 | 1 | 
39 | CCc1cc2ccc(C(C)(C#N)Cc3cccc(C(=O)N(C)C)c3)cc2[nH]c1=O (stereo not shown) [Compound 63] | 0.316 | 3.16 | 
40 | CCc1cc2ccc(C(C)(C#N)Cc3cccc(OCCCN4CCN(C)CC4)c3)cc2[nH]c1=O (stereo not shown) [Compound 69] | 10 |  | 
41 | Cc1cc2ccc(C(C)(C#N)Cc3ccc(C(F)(F)F)o3)cc2[nH]c1=O (stereo not shown) [Compound 73] | 0.316 | 1 | 
42 | CCc1cc2ccc(C(C)(C#N)Cc3cc(C)ccc3C)cc2[nH]c1=O (stereo not shown) [Compound 78] | 0.1 | 0.1 | 

Row | SMILES | minimal effective concentration (HCT116 cells) [µM] | minimal effective concentration (PC3 cells; PC-3, 1 h, 1 hour treatment) [µM] | other results
43 | CCc1cc2ccc(C(C)(C#N)Cc3cccc(CN4CCOCC4)c3)cc2[nH]c1=O (stereo not shown) [Compound 58] | 3.16 | 3.16 | 
44 | CCc1cc2ccc(C(C)(C#N)Cc3cccc(Br)c3C)cc2[nH]c1=O (stereo not shown) [Compound 81] | 0.1 | 0.316 | 
45 | CCc1cc2ccc(C(C)(C#N)Cc3cccnc3)cc2[nH]c1=O (stereo not shown) [Compound 97] | 3.16 |  | 
46 | Cc1cc2ccc(C(C)(C#N)Cc3noc(-c4cccc(C(F)(F)F)c4)n3)cc2[nH]c1=O (stereo not shown) [Compound 70] | 1 | 3.16 | 
47 | CCc1cc2ccc(C(C)(C#N)Cc3cccc(OCC4CC4)c3)cc2[nH]c1=O (stereo not shown) [Compound 67] | 0.316 | 0.316 | 
48 | CCc1cc2ccc(C(C)(C#N)CC3COc4ccccc4O3)cc2[nH]c1=O (single isomer, unassigned) [Compound 47] |  |  | Mitotic arrest HCT116 LAD (HCT116 cells): 5.5
49 | CCc1cc2ccc(C(C)(C#N)Cc3cccc(OCCCN4CCOCC4)c3)cc2[nH]c1=O (stereo not shown) [Compound 68] | 10 |  | 
50 | CC(C#N)(Cc1ccccc1)c1ccc2cc(CO)c(=O)[nH]c2c1 (stereo not shown) [Compound 40] | 3.16 |  | 
51 | CCc1cc2ccc(C(C)(C#N)Cc3ccc4nccnc4c3)cc2[nH]c1=O (stereo not shown) [Compound 87] | 0.316 | 3.16 | 
52 | CCc1cc2ccc(C(C)(C#N)Cc3nn(C)c4ccccc34)cc2[nH]c1=O (stereo not shown) [Compound 95] | 0.1 |  | 
53 | CCc1cc2ccc(C(C)(C#N)Cc3cn4ccccc4n3)cc2[nH]c1=O (stereo not shown) [Compound 96] | 1 |  | 
54 | CCc1cc2ccc(C(C)(C#N)Cc3nnsc3Cl)cc2[nH]c1=O (stereo not shown) [Compound 42] | 0.1 | 0.1 | 
55 | CCc1cc2ccc(C(C)(C#N)CCOc3ccc4c(c3)OCO4)cc2[nH]c1=O (stereo not shown) [Compound 279] | 1 | 1 | 
56 | CCc1cc2ccc(C(C)(C#N)Cc3c(C)c(C)cc(C)c3C)cc2[nH]c1=O (stereo not shown) [Compound 88] | 1 |  | 
57 | CCc1cc2ccc([C@@](C)(C#N)Cc3nc(OC)cc(OC)n3)cc2[nH]c1=O (single isomer, unassigned) [Compound 53] | 0.02 | 0.0316 | 
58 | CCc1cc2ccc(C(C)(C#N)Cc3ccc(C)c(F)c3F)cc2[nH]c1=O (stereo not shown) [Compound 83] | 0.316 | 1 | 
59 | CCc1cc2ccc(C(C)(C#N)Cc3cccc(CNCCOC)c3)cc2[nH]c1=O (stereo not shown) [Compound 60] | 1 |  | 
60 | CCc1cc2ccc(C(C)(C#N)Cc3c(C)c(C)c(C)c(C)c3C)cc2[nH]c1=O (stereo not shown) [Compound 89] | 3.16 |  | 
61 | CCc1cc2ccc(C(C)(C#N)Cc3nncn3C)cc2[nH]c1=O (stereo not shown) [Compound 93] | 1 |  | 
62 | CCc1cc2ccc(C(C)(C#N)Cc3nc(OC)cc(OC)n3)cc2[nH]c1=O (stereo not shown) [Compound 43] | 0.0316 |  | 

Source: patent US8778966B2, “Quinolinone derivatives as PARP and tank inhibitors” (Janssen Pharmaceutica, NV, priority 2007, dated 2014)
